Assay: Stability of cannabinoid compounds and Vitamin E components in Beverage 2 (AB Red) by LCMSMS
Assay type: physicochemical

CCCCCc1cc(O)c2c(c1)OC1(C)CCC3C1C2C3(C)C (stereo not drawn) [CBL, cannabicyclol]
Stability of Plant-Derived Cannabinoid Compounds in AB Red (stored at 8° C., 0 days): 0.510 µg/mL | Stability of Plant-Derived Cannabinoid Compounds in AB Red (stored at 8° C., 1 days): 0.512 µg/mL | Stability of Plant-Derived Cannabinoid Compounds in AB Red (stored at 8° C., 2 days): 0.508 µg/mL | Stability of Plant-Derived Cannabinoid Compounds in AB Red (stored at 8° C., 3 days): 0.499 µg/mL | Stability of Plant-Derived Cannabinoid Compounds in AB Red (stored at 8° C., 5 days): 0.501 µg/mL | Stability of Plant-Derived Cannabinoid Compounds in AB Red (stored at 8° C., 8 days): 0.496 µg/mL | Stability of Plant-Derived Cannabinoid Compounds in AB Red (stored at 8° C., 9 days): 0.496 µg/mL | Stability of Plant-Derived Cannabinoid Compounds in AB Red (stored at 8° C., 10 days): 0.505 µg/mL | Stability of Plant-Derived Cannabinoid Compounds in AB Red (stored at 8° C., 11 days): 0.501 µg/mL | Stability of Plant-Derived Cannabinoid Compounds in AB Red (stored at 8° C., 12 days): 0.499 µg/mL | Stability of Plant-Derived Cannabinoid Compounds in AB Red (stored at 8° C., 15 days): 0.510 µg/mL | Stability of Plant-Derived Cannabinoid Compounds in AB Red (stored at 8° C., 16 days): 0.502 µg/mL | Stability of Plant-Derived Cannabinoid Compounds in AB Red (stored at 8° C., 17 days): 0.514 µg/mL | Stability of Plant-Derived Cannabinoid Compounds in AB Red (stored at 8° C., 18 days): 0.513 µg/mL | Stability of Plant-Derived Cannabinoid Compounds in AB Red (stored at 8° C., 19 days): 0.510 µg/mL | Stability of Plant-Derived Cannabinoid Compounds in AB Red (stored at 8° C., 22 days): 0.495 µg/mL | Stability of Plant-Derived Cannabinoid Compounds in AB Red (stored at 8° C., 23 days): 0.502 µg/mL | Stability of Plant-Derived Cannabinoid Compounds in AB Red (stored at 8° C., 24 days): 0.508 µg/mL | Stability of Plant-Derived Cannabinoid Compounds in AB Red (stored at 8° C., 25 days): 0.510 µg/mL | Stability of Plant-Derived Cannabinoid Compounds in AB Red (stored at 8° C., 26 days): 0.502 µg/mL | Stability of Plant-Derived Cannabinoid Compounds in AB Red (stored at 8° C., 29 days): 0.511 µg/mL | Stability of Plant-Derived Cannabinoid Compounds in AB Red (stored at 8° C., 30 days): 0.511 µg/mL | Stability of Plant-Derived Cannabinoid Compounds in AB Red (stored at 8° C., 60 days): 0.491 µg/mL | Stability of Plant-Derived Cannabinoid Compounds in AB Red (stored at 8° C., 90 days): 0.501 µg/mL | Stability of Plant-Derived Cannabinoid Compounds in AB Red (stored at 8° C., 120 days): 0.488 µg/mL | Stability of Plant-Derived Cannabinoid Compounds in AB Red (stored at 8° C., 150 days): 0.501 µg/mL | Stability of Plant-Derived Cannabinoid Compounds in AB Red (stored at 8° C., 180 days): 0.506 µg/mL | Stability of Plant-Derived Cannabinoid Compounds in AB Red (stored at 8° C., 210 days): 0.490 µg/mL | Stability of Plant-Derived Cannabinoid Compounds in AB Red (stored at 8° C., 240 days): 0.490 µg/mL | Stability of Plant-Derived Cannabinoid Compounds in AB Red (stored at 8° C., 270 days): 0.504 µg/mL | Stability of Plant-Derived Cannabinoid Compounds in AB Red (stored at 8° C., 300 days): 0.489 µg/mL | Stability of Plant-Derived Cannabinoid Compounds in AB Red (stored at 8° C., 330 days): 0.505 µg/mL | Stability of Plant-Derived Cannabinoid Compounds in AB Red (stored at 8° C., 360 days): 0.495 µg/mL | Stability of Plant-Derived Cannabinoid Compounds in AB Red (stored at 8° C., 390 days): 0.491 µg/mL | Stability of Plant-Derived Cannabinoid Compounds in AB Red (stored at 8° C., 420 days): 0.494 µg/mL | Stability of Plant-Derived Cannabinoid Compounds in AB Red (stored at 8° C., 450 days): 0.492 µg/mL | Stability of Plant-Derived Cannabinoid Compounds in AB Red (stored at 8° C., 480 days): 0.487 µg/mL | Stability of Plant-Derived Cannabinoid Compounds in AB Red (stored at 8° C., 510 days): 0.468 µg/mL | Stability of Plant-Derived Cannabinoid Compounds in AB Red (stored at 8° C., 540 days): 0.470 µg/mL | Stability of Plant-Derived Cannabinoid Compounds in AB Red (stored at 8° C., 570 days): 0.469 µg/mL | Stability of Plant-Derived Cannabinoid Compounds in AB Red (stored at 21-25° C., 0 days): 0.51 µg/mL | Stability of Plant-Derived Cannabinoid Compounds in AB Red (stored at 21-25° C., 1 days): 0.50 µg/mL | Stability of Plant-Derived Cannabinoid Compounds in AB Red (stored at 21-25° C., 2 days): 0.50 µg/mL | Stability of Plant-Derived Cannabinoid Compounds in AB Red (stored at 21-25° C., 3 days): 0.50 µg/mL | Stability of Plant-Derived Cannabinoid Compounds in AB Red (stored at 21-25° C., 5 days): 0.51 µg/mL | Stability of Plant-Derived Cannabinoid Compounds in AB Red (stored at 21-25° C., 8 days): 0.50 µg/mL | Stability of Plant-Derived Cannabinoid Compounds in AB Red (stored at 21-25° C., 9 days): 0.51 µg/mL | Stability of Plant-Derived Cannabinoid Compounds in AB Red (stored at 21-25° C., 10 days): 0.50 µg/mL | Stability of Plant-Derived Cannabinoid Compounds in AB Red (stored at 21-25° C., 11 days): 0.50 µg/mL | Stability of Plant-Derived Cannabinoid Compounds in AB Red (stored at 21-25° C., 12 days): 0.50 µg/mL | Stability of Plant-Derived Cannabinoid Compounds in AB Red (stored at 21-25° C., 15 days): 0.50 µg/mL | Stability of Plant-Derived Cannabinoid Compounds in AB Red (stored at 21-25° C., 16 days): 0.51 µg/mL | Stability of Plant-Derived Cannabinoid Compounds in AB Red (stored at 21-25° C., 17 days): 0.51 µg/mL | Stability of Plant-Derived Cannabinoid Compounds in AB Red (stored at 21-25° C., 18 days): 0.50 µg/mL | Stability of Plant-Derived Cannabinoid Compounds in AB Red (stored at 21-25° C., 19 days): 0.49 µg/mL | Stability of Plant-Derived Cannabinoid Compounds in AB Red (stored at 21-25° C., 22 days): 0.49 µg/mL | Stability of Plant-Derived Cannabinoid Compounds in AB Red (stored at 21-25° C., 23 days): 0.51 µg/mL | Stability of Plant-Derived Cannabinoid Compounds in AB Red (stored at 21-25° C., 24 days): 0.50 µg/mL | Stability of Plant-Derived Cannabinoid Compounds in AB Red (stored at 21-25° C., 25 days): 0.51 µg/mL | Stability of Plant-Derived Cannabinoid Compounds in AB Red (stored at 21-25° C., 26 days): 0.51 µg/mL

Reference: patent publication US20260130395A1, “Water Dispersible Botanical Compositions” (Aquila Black Limited, priority 2021, published 2026)
